# Laboratory results: ChEMBL document CHEMBL4414669, “Structural Characterization and Anti-infective Activity of 9,10-Seco-29-norcycloartane Glycosides Isolated from the Flowers of the Peruvian Medicinal Plant Cordia lutea” (J Nat Prod, 2019)
# Columns and labels:
# [1] = tested on: Helicobacter pylori; assay: Antibacterial activity against Helicobacter pylori CIP 103995 incubated for 72 hrs under microaerophilic conditions by broth microdilution method; format: functional; settings: CIP 103995, 72 h
# [2] = tested on: Staphylococcus aureus; assay: Antibacterial activity against Staphylococcus aureus ATCC 25923 incubated for 24 hrs by broth microdilution method; format: functional; settings: ATCC 25923, 24 h
# [3] = tested on: Plasmodium falciparum; assay: Antiplasmodial activity against chloroquine-resistant Plasmodium falciparum FcB1 infected in RBC (unknown origin) incubated for 48 hrs by SYBR green dye based fluorescence analysis; format: functional, organism-based; settings: FcB1, 48 h
# [4] = tested on: Leishmania infantum; assay: Antileishmanial activity against Leishmania infantum MHOM/MA/67/ITMAP-263 axenic amastigotes assessed as inhibition of parasitic metabolic activity incubated for 48 hrs by steady Glow reagent based luminescence assay; format: functional, organism-based; settings: MHOM/MA/67/ITMAP-263, 48 h
# [5] = tested on: Escherichia coli; assay: Antibacterial activity against Escherichia coli ATCC 25922 incubated for 24 hrs by broth microdilution method; format: functional; settings: ATCC 25922, 24 h
# [6] = Cytotoxicity against mouse RAW264.7 cells assessed as reduction in cell viability incubated for 48 hrs by MTT assay; format: cell-based
# [7] = tested on: Pseudomonas aeruginosa; assay: Antibacterial activity against Pseudomonas aeruginosa ATCC 27853 incubated for 24 hrs by broth microdilution method; format: functional; settings: ATCC 27853, 24 h
Compound,MIC [1] [µg/mL],MIC [2] [µg/mL],IC50 [3] [µM],IC50 [4] [µM],MIC [5] [µg/mL],CC50 at 48 h [6] [µM],MIC [7] [µg/mL]
C=C(C(C)C)[C@H](O)C[C@@H](C)[C@H]1CC[C@@]2(C)[C@@H]3CC[C@H]4[C@H](C)[C@@H](O[C@@H]5OC[C@@H](O)[C@H](O)[C@H]5O)CC[C@]4(O)CC3=CC[C@]12C,15.6,62.5,> 150,5,> 125,24.2,> 125
C/C=C(\C(C)C)[C@H](O)C[C@@H](C)[C@H]1CC[C@@]2(C)[C@@H]3CC[C@H]4[C@H](C)[C@@H](O[C@@H]5O[C@@H](C)[C@H](O)[C@@H](O)[C@H]5O)CC[C@]4(O)CC3=CC[C@]12C,31.3,> 125,61.3,5.2,> 125,21.9,> 125
C=C(C(C)C)[C@H](O)C[C@@H](C)[C@H]1CC[C@@]2(C)[C@@H]3CC[C@H]4[C@H](C)[C@@H](O[C@@H]5OC[C@H](O)[C@H](O)[C@H]5O)CC[C@]4(O)CC3=CC[C@]12C,15.6,31.3,52.4,7.7,> 125,26.6,> 125
C/C=C(\C(C)C)[C@H](O)C[C@@H](C)[C@H]1CC[C@@]2(C)[C@@H]3CC[C@H]4[C@H](C)[C@@H](O[C@@H]5OC[C@H](O)[C@H](O)[C@H]5O)CC[C@]4(O)CC3=CC[C@]12C,15.6,31.3,53.7,6.3,> 125,19.6,> 125
C=C(C(C)C)[C@H](O)C[C@@H](C)[C@H]1CC[C@@]2(C)[C@@H]3CC[C@H]4[C@H](C)[C@@H](O[C@@H]5O[C@@H](C)[C@H](O)[C@@H](O)[C@H]5O)CC[C@]4(O)CC3=CC[C@]12C,31.3,> 125,55,6.7,> 125,35.1,> 125
C/C=C(\C(C)C)[C@H](O)C[C@@H](C)[C@H]1CC[C@@]2(C)[C@@H]3CC[C@H]4[C@H](C)[C@@H](O[C@@H]5OC[C@@H](O)[C@H](O)[C@H]5O)CC[C@]4(O)CC3=CC[C@]12C,15.6,> 125,46.9,5.2,> 125,30.3,> 125
C[C@@H]1[C@H](O)[C@@H](C)/C=C/C=C/C=C/C=C/C=C/C=C/C=C/[C@H](O[C@@H]2O[C@H](C)[C@@H](O)[C@H](N)[C@@H]2O)C[C@@H]2O[C@](O)(C[C@@H](O)C[C@@H](O)[C@H](O)CC[C@@H](O)C[C@@H](O)CC(=O)O[C@H]1C)C[C@H](O)[C@H]2C(=O)O [AMPHOTERICIN B],–,–,–,0.07,–,–,–
CC[C@H]1OC(=O)[C@H](C)[C@@H](O[C@H]2C[C@@](C)(OC)[C@@H](O)[C@H](C)O2)[C@H](C)[C@@H](O[C@@H]2O[C@H](C)C[C@H](N(C)C)[C@H]2O)[C@](C)(OC)C[C@@H](C)C(=O)[C@H](C)[C@@H](O)[C@]1(C)O [CLARITHROMYCIN],0.01,–,–,–,–,–,–
COc1cccc2c1C(=O)c1c(O)c3c(c(O)c1C2=O)C[C@@](O)(C(=O)CO)C[C@@H]3O[C@H]1C[C@H](N)[C@H](O)[C@H](C)O1 [DOXORUBICIN],–,–,–,–,–,0.8,–
CN(C)[C@@H]1C(O)=C(C(N)=O)C(=O)[C@@]2(O)C(O)=C3C(=O)c4c(O)cccc4[C@@](C)(O)[C@H]3C[C@@H]12 [TETRACYCLINE],–,0.5,–,–,2,–,16
